Data as given in patent publication US11285135B2 (AMGEN INC., priority 2016, dated 2022).
Where two headings read alike, the source gives them in different places.

How the values were obtained:
[1] = biological target: GDP-bound protein (aa 1-169), containing both G12C and C118A amino acid substitutions (Homo sapiens, UniProt P01116, C118A/G12C); experiment: Coupled Nucleotide Exchange Assay (SOS-mediated nucleotide exchange, AlphaScreen); type: biochemical; settings: 2 hours compound pre-incubation
GDP-bound protein (aa 1-169), containing both G12C and C118A amino acid substitutions, sequence (P01116 1-169 isoform P01116-2 G12C/C118A): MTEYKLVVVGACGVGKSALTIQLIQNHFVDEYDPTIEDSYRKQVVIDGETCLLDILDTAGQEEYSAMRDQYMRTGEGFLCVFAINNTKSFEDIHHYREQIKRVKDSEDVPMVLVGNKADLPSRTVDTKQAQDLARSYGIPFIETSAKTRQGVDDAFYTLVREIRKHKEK
Protocol: Coupled Nucleotide Exchange Assay: Purified GDP-bound […] protein (aa 1-169), containing both G12C and C118A amino acid substitutions and an N-terminal His-tag, was pre-incubated with a compound dose-response titration for 2 hours in assay buffer (25 mM HEPES pH 7.4, 10 mM MgCl2, and 0.01% Triton X-100). Following compound pre-incubation, purified SOS protein (aa 564-1049) and GTP (Roche 10106399001) were added to the assay wells and incubated for an additional hour. […] The assay plates were then read on a PerkinElmer EnVision Multilabel Reader, using AlphaScreen® technology, and data were analyzed using a 4-parameter logistic model to calculate IC50 values.

[2] = system: Phosphorylation of ERK½ in MIA PaCa-2 cells; experiment: Phospho-ERK½ MSD Assay in MIA PaCa-2 cells; type: cell-based; settings: 4 hours compound treatment, 10 ng/mL EGF for 10 min, read-out: p-ERK IC50 (MIA PaCa-2)
Protocol: (§1) Phospho-ERK½ MSD Assay: MIA PaCa-2 (ATCC® CRL-1420™) and A549 (ATCC® CCL-185™) cells were cultured in RPMI 1640 Medium (ThermoFisher Scientific 11875093) containing 10% fetal bovine serum (ThermoFisher Scientific 16000044) and 1× penicillin-streptomycin-glutamine (ThermoFisher Scientific 10378016). Sixteen hours prior to compound treatment, MIA PaCa-2 or A549 cells were seeded in 96-well cell culture plates at a density of 25,000 cells/well and incubated at 37° C., 5% CO2. A compound dose-response titration was diluted in growth media, added to appropriate wells of a cell culture plate, and then incubated at 37° C., 5% CO2 for 4 hours. Following compound treatment, cells were stimulated with 10 ng/mL EGF (Roche 11376454001) for 10 min, washed with ice-cold Dulbecco's phosphate-buffered saline, no Ca^2+ or Mg^2+ (ThermoFisher Scientific 14190144), and then lysed in RIPA buffer (50 mM Tris-HCl pH 7.5, 1% Igepal, 0.5% sodium deoxycholate, 150 mM NaCl, and 0.5% sodium dodecyl sulfate) containing protease inhibitors (Roche 4693132001) and phosphatase inhibitors (Roche 4906837001). Cell lysates were stored frozen at −80° C. overnight. Phosphorylation of ERK½ in compound-treated lysates was assayed using Phospho-ERK½ Whole Cell Lysate kits (Meso Scale Discovery K151DWD) according to the manufacturer's protocol. Assay plates were read on a Meso Scale Discovery Sector Imager 6000, and data were analyzed using a 4-parameter logistic model to calculate IC50 values.

[3] = system: Phosphorylation of ERK½ in A549 cells; experiment: Phospho-ERK½ MSD Assay in A549 cells; type: cell-based; settings: 4 hours compound treatment, 10 ng/mL EGF for 10 min, read-out: p-ERK IC50 (A549)
Protocol: as §1

[4] = Homo sapiens, MIA PaCa-2, MIA PaCa-2 cells

`C=CC(=O)N1CCN(c2snc3nc(-c4cc(O)cc5ccccc45)c(Cl)cc23)C(C)C1` (racemic) [Example 2-5, 1-(4-(5-chloro-6-(3-hydroxy-1-naphthalenyl)[1,2]thiazolo[3,4-b]pyridin-3-yl)-3-methyl-1-piperazinyl)-2-propen-1-one] was tested, and the “Coupled exchange IC50” value [1] was 684 nM, the IC50 [2, 4] was 5460 nM and the IC50 ([3]; Homo sapiens, A549, A549 cells) was 3700 nM.

`C=CC(=O)N1CCN(c2snc3nc(-c4c(C)ccc5[nH]ncc45)c(Cl)cc23)C(C)C1` (racemic) [Example 2-6, 1-(4-(5-chloro-6-(5-methyl-1H-indazol-4-yl)[1,2]thiazolo[3,4-b]pyridin-3-yl)-3-methyl-1-piperazinyl)-2-propen-1-one] was tested, and the “Coupled exchange IC50” value [1] was 1590 nM, the IC50 [2, 4] was 2970 nM and the IC50 ([3]; Homo sapiens, A549, A549 cells) was 3700 nM.

With `C=CC(=O)N1C[C@@H](C)N(c2snc3c(F)c(-c4cc(O)cc5ccccc45)c(Cl)cc23)[C@H](C)C1` (racemic) [Example 2-7, 1-(4-(5-chloro-7-fluoro-6-(3-hydroxy-1-naphthalenyl)-2,1-benzothiazol-3-yl)-3,5-dimethyl-1-piperazinyl)-2-propen-1-one] the “Coupled exchange IC50” value [1] was 1080 nM, the IC50 [2, 4] was 3870 nM and the IC50 ([3]; Homo sapiens, A549, A549 cells) was over 33300 nM.

With `C=CC(=O)N1CCN(c2snc3c(F)c(-c4c(C)ccc5[nH]ncc45)c(Cl)cc23)[C@H](C(F)F)C1` (racemic) [Example 2-8, 1-(4-(5-chloro-7-fluoro-6-(5-methyl-1H-indazol-4-yl)-2,1-benzothiazol-3-yl)-3-(difluoromethyl)-1-piperazinyl)-2-propen-1-one] the “Coupled exchange IC50” value [1] was 361 nM, the IC50 [2, 4] was 258 nM and the IC50 ([3]; Homo sapiens, A549, A549 cells) was over 100000 nM.

With `C=CC(=O)N1CCN(c2snc3c(F)c(-c4c(O)cccc4F)c(Cl)cc23)C(C(F)F)C1` (racemic) [Example 2-9, 1-(4-(5-chloro-7-fluoro-6-(2-fluoro-6-hydroxyphenyl)-2,1-benzothiazol-3-yl)-3-(difluoromethyl)-1-piperazinyl)-2-propen-1-one] the “Coupled exchange IC50” value [1] was 301 nM, the IC50 [2, 4] was 747 nM and the IC50 ([3]; Homo sapiens, A549, A549 cells) was over 100000 nM.

In the case of `C=CC(=O)N1C[C@@H]2[C@H]1CCN2c1snc2c(F)c(-c3cc(O)cc4ccccc34)c(Cl)cc12` (racemic) [Example 5-8, 1-(cis-2-(5-Chloro-7-fluoro-6-(3-hydroxy-1-naphthalenyl)-2,1-benzothiazol-3-yl)-2,6-diazabicyclo[3.2.0]heptan-6-yl)-2-propen-1-one], the “Coupled exchange IC50” value [1] is reported as 433 nM, the IC50 [2, 4] is reported as 1200 nM and the IC50 ([3]; Homo sapiens, A549, A549 cells) is reported as over 33300 nM.

In the case of `C=CC(=O)N1CCN(c2snc3c(F)c(-c4cc(O)cc5ccccc45)c(Cl)cc23)[C@@H](C(F)F)C1` (racemic) [Example 7-1], the “Coupled exchange IC50” value [1] is reported as 299 nM, the IC50 [2, 4] is reported as 430 nM and the IC50 ([3]; Homo sapiens, A549, A549 cells) is reported as over 100000 nM.

With `C=CC(=O)N1CCN(c2snc3c(F)c(-c4cc(O)cc5ccccc45)c(Cl)cc23)[C@@H](CF)C1` (racemic) [Example 7-2, 1-(4-(5-chloro-7-fluoro-6-(3-hydroxy-1-naphthalenyl)-2,1-benzothiazol-3-yl)-3-(fluoromethyl)-1-piperazinyl)-2-pxopen-1-one] the “Coupled exchange IC50” value [1] was 180 nM, the IC50 [2, 4] was 222 nM and the IC50 ([3]; Homo sapiens, A549, A549 cells) was over 100000 nM.

With `C=CC(=O)N1CCN(c2snc3c(F)c(-c4cc(O)cc5ccccc45)c(Cl)cc23)C(C(=O)OC)C1` (racemic) [Example 7-3, methyl 4-acryloyl-1-(5-chloro-7-fluoro-6-(3-hydroxynaphthalen-1-yl)benzo[c]isothiazol-3-yl)piperazine-2-carboxylate] the “Coupled exchange IC50” value [1] was 1730 nM, the IC50 [2, 4] was 5830 nM and the IC50 ([3]; Homo sapiens, A549, A549 cells) was over 100000 nM.

`C=CC(=O)N1CCN(c2nc(=O)n(-c3ccccc3C(C)CC)c3cc(-c4cc(O)cc5ccccc45)c(Cl)cc23)CC1` (racemic) [Example 9-4, 1-(2-(2-butanyl)phenyl)-6-chloro-7-(3-hydroxy-1-naphthalenyl)-4-(4-(2-propenoyl)-1-piperazinyl)-2(1H)-quinazolinone] was tested, and the “Coupled exchange IC50” value [1] was 198 nM, the IC50 [2, 4] was 23 nM and the IC50 ([3]; Homo sapiens, A549, A549 cells) was 13000 nM.

In the case of `C=CC(=O)N1CCN(c2nc(=O)n([C@H]3CCCCC3(C)C)c3nc(-c4c(O)cccc4F)c(Cl)cc23)CC1` (racemic) [Example 9-14, 6-chloro-1-((1R)-2,2-dimethylcyclohexyl)-7-(2-fluoro-6-hydroxyphenyl)-4-(4-(2-propenoyl)-1-piperazinyl)pyrido[2,3-d]pyrimidin-2(1H)-one|6-chloro-1-((1S)-2,2-dimethylcyclohexyl)-7-(2-fluoro-6-hydroxyphenyl)-4-(4-(2-propenoyl)-1-piperazinyl)pyrido[2,3-d]pyrimidin-2(1H)-one], the “Coupled exchange IC50” value [1] is reported as 129 nM, the IC50 [2, 4] is reported as 344 nM and the IC50 ([3]; Homo sapiens, A549, A549 cells) is reported as over 100000 nM.

In the case of `C=CC(=O)N1CCN(c2snc3c(F)c(-c4cc(O)cc5ccccc45)c(Cl)cc23)[C@@H](C)C1` (single isomer, unassigned) [Example 1-19-1], the “Coupled exchange IC50” value [1] is reported as 115 nM, the IC50 [2, 4] is reported as 368 nM and the IC50 ([3]; Homo sapiens, A549, A549 cells) is reported as over 100000 nM.

In the case of `C=CC(=O)N1CCN(c2snc3c(F)c(-c4cc(O)cc5ccccc45)c(Cl)cc23)[C@@H](C)C1` (single isomer, unassigned) [Example 1-19-2], the “Coupled exchange IC50” value [1] is reported as 5100 nM, the IC50 ([2]; MIA PaCa-2 cells) is reported as over 100000 nM and the IC50 ([3]; A549 cells) is reported as over 100000 nM.

With `C=CC(=O)N1CCN(c2snc3nc(-c4cc(O)cc5ccccc45)c(Cl)cc23)C(C)C1` (single isomer, unassigned) [Example 2-5-1, 1-((3S)-4-(5-chloro-6-(3-hydroxy-1-naphthalenyl) [1,2]thiazolo[3,4-b]pyridin-3-yl)-3-methyl-1-piperazinyl)-2-propen-1-one or 1-((3R)-4-(5-chloro-6-(3-hydroxy-1-naphthalenyl) [1,2]thiazolo[3,4-b]pyridin-3-yl)-3-methyl-1-piperazinyl)-2-propen-1-one] the “Coupled exchange IC50” value [1] was 308 nM, the IC50 ([2]; MIA PaCa-2 cells) was 1140 nM and the IC50 ([3]; A549 cells) was over 100000 nM.

For `C=CC(=O)N1CCN(c2snc3nc(-c4cc(O)cc5ccccc45)c(Cl)cc23)C(C)C1` (single isomer, unassigned) [Example 2-5-2, 1-((3R)-4-(5-chloro-6-(3-hydroxy-1-naphthalenyl) [1,2]thiazolo[3,4-b]pyridin-3-yl)-3-methyl-1-piperazinyl)-2-propen-1-one or 1-((3S)-4-(5-ch1oro-6-(3-hydroxy-1-naphthalenyl) [1,2]thiazolo[3,4-b]pyridin-3-yl)-3-methyl-1-piperazinyl)-2-propen-1-one], the “Coupled exchange IC50” value [1] was 1350 nM, the IC50 ([2]; MIA PaCa-2 cells) was 7480 nM and the IC50 ([3]; A549 cells) was 3700 nM.

`C=CC(=O)N1CCN(c2snc3nc(-c4c(C)ccc5[nH]ncc45)c(Cl)cc23)C(C)C1` (single isomer, unassigned) [Example 2-6-2, 1-((3R)-4-(5-chloro-6-(5-methyl-1H-indazol-4-yl)[1,2]thiazolo[3,4-b]pyridin-3-yl)-3-methyl-1-piperazinyl)-2-propen-1-one or 1-((3S)-4-(5-chloro-6-(5-methyl-1H-indazol-4-yl)[1,2]thiazolo[3,4-b]pyridin-3-yl)-3-methyl-1-piperazinyl)-2-propen-1-one] was tested, and the “Coupled exchange IC50” value [1] was 1250 nM, the IC50 [2, 4] was 1290 nM and the IC50 ([3]; Homo sapiens, A549, A549 cells) was 3700 nM.

`C=CC(=O)N1CCN(c2snc3c(F)c(-c4cc(O)cc5ccccc45)c(Cl)cc23)CC1` (single isomer, unassigned) [Example 3-1-1, 1-(4-(5-chloro-7-fluoro-6-(3-hydroxy-1-naphthalenyl)-2,1-benzothiazol-3-yl)-1-piperazinyl)-2-propen-1-one] was tested, and the “Coupled exchange IC50” value [1] was 3000 nM, the IC50 ([2]; MIA PaCa-2 cells) was over 100000 nM and the IC50 ([3]; A549 cells) was over 100000 nM.

With `C=CC(=O)N1CCN(c2snc3c(F)c(-c4cc(O)cc5ccccc45)c(Cl)cc23)CC1` (single isomer, unassigned) [Example 3-1-2, 1-(4-(5-chloro-7-fluoro-6-(3-hydroxy-1-naphthalenyl)-2,1-benzothiazol-3-yl)-1-piperazinyl)-2-propen-1-one] the “Coupled exchange IC50” value [1] was 302 nM, the IC50 ([2]; MIA PaCa-2 cells) was 2350 nM and the IC50 ([3]; A549 cells) was over 100000 nM.
